How the values were obtained:
[1] = target: KRAS G12V (Homo sapiens, UniProt P01116, G12V); experiment: GDP-GTP exchange assay (KRAS G12V); type: biochemical; settings: bodipy-GDP/GppNHp exchange with SOS1; 3 h incubation after GppNHp-SOS1;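 also: one dagger IC50 up to 100 nM and two daggers above 100 nM up to 1 μM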
Method in brief: (§1)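 IC50 came from a four-parameter fit of fluorescence loss (485/520 nm) as SOS1 (150 nM) swapped bodipy-GDP for GppNHp (500 μM) on 2.5 nM KRAS, final concentrations. Compounds were pre-incubated 4 h at r.t. (pH 7.5 Hepes, 10 mM MgCl2); exchange ran 2 h (G12D) or 3 h (G12V).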

[2] = Caco2 assay (permeability, Papp A-B); type: in vitro ADME; settings: human, Caco-2, absorptive direction (A-B), 50 μM test compound, 4% BSA in receiver
Method in brief: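 Absorptive (A-B) Papp: 50 μM test compound in HBSS added to apical side of 22-25-day Caco-2 monolayers (TEER 300 Ω·cm^2), receiver buffer containing 4% BSA. After 120 min at 37 °C, 5% CO2, both sides analysed by LCMS; Papp calculated from flux rate normalized to area and donor amount.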

[3] = target: KRAS G12D (Homo sapiens, UniProt P01116, G12D); experiment: GDP-GTP exchange assay (KRAS G12D); type: biochemical; settings: bodipy-GDP/GppNHp exchange with SOS1; 4 h pre-incubation, 2 h reaction;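 also: one dagger IC50 up to 100 nM and two daggers above 100 nM up to 1 μM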
Sequence of KRAS G12D (P01116 1-188 isoform P01116-2 G12D): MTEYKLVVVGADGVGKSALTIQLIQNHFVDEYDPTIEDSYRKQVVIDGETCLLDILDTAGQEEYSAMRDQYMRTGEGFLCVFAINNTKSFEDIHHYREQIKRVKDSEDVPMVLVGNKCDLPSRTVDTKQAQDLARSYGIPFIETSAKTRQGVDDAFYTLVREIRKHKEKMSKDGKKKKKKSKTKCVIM
Method in brief: as §1

Sequence of KRAS G12V (P01116 1-188 isoform P01116-2 G12V): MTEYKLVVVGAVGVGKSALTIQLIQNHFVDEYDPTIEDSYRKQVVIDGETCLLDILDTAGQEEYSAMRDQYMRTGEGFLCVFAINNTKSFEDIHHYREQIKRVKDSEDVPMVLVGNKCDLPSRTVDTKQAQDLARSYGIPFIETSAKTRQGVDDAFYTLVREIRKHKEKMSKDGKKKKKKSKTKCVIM

| SMILES | G12V_exchange (KRAS_G12V exchange assay IC50) [1] | Papp A→B at 120 min, 50 μM [2] [×10⁻⁶ cm/s] | G12D_exchange (KRAS_G12D exchange assay IC50) [3] |
| --- | --- | --- | --- |
| COC(=O)N1[C@@H]2C[C@@H](CN(c3cc(C(C)(F)F)ncn3)C2)[C@@H]1c1cc2c(C)nc3c(F)c(-c4cccc(Cl)c4Cl)c(CCC#N)cc3c2n1[C@H]1[C@H]2CN[C@@H]1C2 (atropisomer, axis not shown; (Ra)) [Example 124, Methyl (1 S,5R,7R)-7-((Ra)-1-((1R,4R,5S)-2-azabicyclo[2.1.1]hexan-5-yl)-8-(2-cyanoethyl)-7-(2,3-dichlorophenyl)-6-fluoro-4-methyl-1H-pyrrolo[3,2-c]quinolin-2-yl)-3-(6-(1,1-difluoroethyl)pyrimidin-4-yl)-3,6-diazabicyclo[3.2.1]octane-6-carboxylate] | † | ≤ 0.5 | † |
| Cc1nc2c(F)c(-c3cccc(Cl)c3Cl)c(CCC#N)cc2c2c1cc([C@H]1[C@H]3C[C@H](CN(c4ccc(C(F)(F)F)cn4)C3)N1C(=O)C1CC1)n2[C@H]1[C@H]2CN[C@@H]1C2 [Example 30, 3-((Ra)-1-((1R,4R,5S)-2-Azabicyclo[2.1.1]hexan-5-yl)-2-((1 S,5R,7R)-6-(cyclopropanecarbonyl)-3-(5-(trifluoromethyl)pyridin-2-yl)-3,6-diazabicyclo[3.2.1]octan-7-yl)-7-(2,3-dichlorophenyl)-6-fluoro-4-methyl-1H-pyrrolo[3,2-c]quinolin-8-yl)propanenitrile] | † | ≤ 0.5 | † |

Next, values leading:

| G12V_exchange (KRAS_G12V exchange assay IC50) [1] | Papp A→B at 120 min, 50 μM [2] [×10⁻⁶ cm/s] | G12D_exchange (KRAS_G12D exchange assay IC50) [3] | SMILES |
| --- | --- | --- | --- |
| † | ≤ 0.5 | † | Cc1nc2c(F)c(-c3cccc(Cl)c3Cl)c(CCC#N)cc2c2c1cc([C@H]1C[C@H]3C[C@H](CN3c3ccccn3)N1C(=O)C1CC1)n2[C@H]1[C@H]2CN[C@@H]1C2 (atropisomer, axis not shown; (Ra)) [Example 118, 3-((Ra)-1-((1R,4R,5S)-2-Azabicyclo[2.1.1]hexan-5-yl)-2-((1R,3R,5R)-2-(cyclopropanecarbonyl)-6-(pyridin-2-yl)-2,6-diazabicyclo[3.2.1]octan-3-yl)-7-(2,3-dichlorophenyl)-6-fluoro-4-methyl-1H-pyrrolo[3,2-c]quinolin-8-yl)propanenitrile] |
| † | ≤ 0.5 | † | Cc1nc2c(F)c(-c3cccc(Cl)c3Cl)c(CCC#N)cc2c2c1cc([C@H]1C[C@H]3C[C@H](CN3C(=O)c3ccccc3)N1C(=O)C1CC1)n2[C@H]1[C@H]2CN[C@@H]1C2 (atropisomer, axis not shown; (Ra)) [Example 119, 3-((Ra)-2-((1R,3R,5R)-6-Benzoyl-2-(cyclopropanecarbonyl)-2,6-diazabicyclo[3.2.1]octan-3-yl)-1-((1R,4R,5S)-2-azabicyclo[2.1.1]hexan-5-yl)-7-(2,3-dichlorophenyl)-6-fluoro-4-methyl-1H-pyrrolo[3,2-c]quinolin-8-yl)propanenitrile] |
| † | ≤ 0.5 | † | Cc1nc2c(F)c(-c3cccc(Cl)c3Cl)c(CCC#N)cc2c2c1cc([C@H]1[C@H]3C[C@H](CN(c4ccnc(C(=O)N(C)C)c4)C3)N1C(=O)C1CC1)n2[C@H]1[C@H]2CN[C@@H]1C2 [Example 64, 4-((1S,5R,7R)-7-((Ra)-1-((1R,4R,5S)-2-azabicyclo[2.1.1]hexan-5-yl)-8-(2-cyanoethyl)-7-(2,3-dichlorophenyl)-6-fluoro-4-methyl-1H-pyrrolo[3,2-c]quinolin-2-yl)-6-(cyclopropanecarbonyl)-3,6-diazabicyclo[3.2.1]octan-3-yl)-N,N-dimethylpicolinamide] |
